Measured values reported in article PMC6954049 (Antiviral Research, 2019).
Counter-ions that a name gives are not always drawn.

Columns and labels:
[1] = molecular target: LCMV MG (Lymphocytic choriomeningitis virus, UniProt P09992+P14240); type: cell-based
[2] = in vitro; conditions: human, CC50 (μM) AlamarBlue assay
[3] = tested on: rLCMV/GFP; experiment: microbe, parasite or virus in culture; type: cell-based
[4] = tested on: LCMV/vRNP cells (HEK293T)

Chain of LCMV MG (P09992 whole entry, looked up): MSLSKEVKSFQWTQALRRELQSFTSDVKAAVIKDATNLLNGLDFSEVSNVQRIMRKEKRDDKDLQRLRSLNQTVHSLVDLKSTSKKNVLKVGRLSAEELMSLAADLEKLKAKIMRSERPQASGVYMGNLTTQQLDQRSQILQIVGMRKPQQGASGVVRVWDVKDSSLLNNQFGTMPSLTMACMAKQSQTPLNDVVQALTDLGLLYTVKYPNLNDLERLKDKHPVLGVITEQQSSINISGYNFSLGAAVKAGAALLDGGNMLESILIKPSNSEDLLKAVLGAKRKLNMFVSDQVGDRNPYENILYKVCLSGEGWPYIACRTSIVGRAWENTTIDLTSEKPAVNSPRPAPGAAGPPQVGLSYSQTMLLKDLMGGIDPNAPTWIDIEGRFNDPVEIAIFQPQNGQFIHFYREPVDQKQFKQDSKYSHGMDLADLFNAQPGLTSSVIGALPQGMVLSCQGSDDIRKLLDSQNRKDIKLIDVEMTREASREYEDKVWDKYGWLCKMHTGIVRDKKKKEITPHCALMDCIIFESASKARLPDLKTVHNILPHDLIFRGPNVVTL
Chain of LCMV MG (P14240 whole entry, looked up): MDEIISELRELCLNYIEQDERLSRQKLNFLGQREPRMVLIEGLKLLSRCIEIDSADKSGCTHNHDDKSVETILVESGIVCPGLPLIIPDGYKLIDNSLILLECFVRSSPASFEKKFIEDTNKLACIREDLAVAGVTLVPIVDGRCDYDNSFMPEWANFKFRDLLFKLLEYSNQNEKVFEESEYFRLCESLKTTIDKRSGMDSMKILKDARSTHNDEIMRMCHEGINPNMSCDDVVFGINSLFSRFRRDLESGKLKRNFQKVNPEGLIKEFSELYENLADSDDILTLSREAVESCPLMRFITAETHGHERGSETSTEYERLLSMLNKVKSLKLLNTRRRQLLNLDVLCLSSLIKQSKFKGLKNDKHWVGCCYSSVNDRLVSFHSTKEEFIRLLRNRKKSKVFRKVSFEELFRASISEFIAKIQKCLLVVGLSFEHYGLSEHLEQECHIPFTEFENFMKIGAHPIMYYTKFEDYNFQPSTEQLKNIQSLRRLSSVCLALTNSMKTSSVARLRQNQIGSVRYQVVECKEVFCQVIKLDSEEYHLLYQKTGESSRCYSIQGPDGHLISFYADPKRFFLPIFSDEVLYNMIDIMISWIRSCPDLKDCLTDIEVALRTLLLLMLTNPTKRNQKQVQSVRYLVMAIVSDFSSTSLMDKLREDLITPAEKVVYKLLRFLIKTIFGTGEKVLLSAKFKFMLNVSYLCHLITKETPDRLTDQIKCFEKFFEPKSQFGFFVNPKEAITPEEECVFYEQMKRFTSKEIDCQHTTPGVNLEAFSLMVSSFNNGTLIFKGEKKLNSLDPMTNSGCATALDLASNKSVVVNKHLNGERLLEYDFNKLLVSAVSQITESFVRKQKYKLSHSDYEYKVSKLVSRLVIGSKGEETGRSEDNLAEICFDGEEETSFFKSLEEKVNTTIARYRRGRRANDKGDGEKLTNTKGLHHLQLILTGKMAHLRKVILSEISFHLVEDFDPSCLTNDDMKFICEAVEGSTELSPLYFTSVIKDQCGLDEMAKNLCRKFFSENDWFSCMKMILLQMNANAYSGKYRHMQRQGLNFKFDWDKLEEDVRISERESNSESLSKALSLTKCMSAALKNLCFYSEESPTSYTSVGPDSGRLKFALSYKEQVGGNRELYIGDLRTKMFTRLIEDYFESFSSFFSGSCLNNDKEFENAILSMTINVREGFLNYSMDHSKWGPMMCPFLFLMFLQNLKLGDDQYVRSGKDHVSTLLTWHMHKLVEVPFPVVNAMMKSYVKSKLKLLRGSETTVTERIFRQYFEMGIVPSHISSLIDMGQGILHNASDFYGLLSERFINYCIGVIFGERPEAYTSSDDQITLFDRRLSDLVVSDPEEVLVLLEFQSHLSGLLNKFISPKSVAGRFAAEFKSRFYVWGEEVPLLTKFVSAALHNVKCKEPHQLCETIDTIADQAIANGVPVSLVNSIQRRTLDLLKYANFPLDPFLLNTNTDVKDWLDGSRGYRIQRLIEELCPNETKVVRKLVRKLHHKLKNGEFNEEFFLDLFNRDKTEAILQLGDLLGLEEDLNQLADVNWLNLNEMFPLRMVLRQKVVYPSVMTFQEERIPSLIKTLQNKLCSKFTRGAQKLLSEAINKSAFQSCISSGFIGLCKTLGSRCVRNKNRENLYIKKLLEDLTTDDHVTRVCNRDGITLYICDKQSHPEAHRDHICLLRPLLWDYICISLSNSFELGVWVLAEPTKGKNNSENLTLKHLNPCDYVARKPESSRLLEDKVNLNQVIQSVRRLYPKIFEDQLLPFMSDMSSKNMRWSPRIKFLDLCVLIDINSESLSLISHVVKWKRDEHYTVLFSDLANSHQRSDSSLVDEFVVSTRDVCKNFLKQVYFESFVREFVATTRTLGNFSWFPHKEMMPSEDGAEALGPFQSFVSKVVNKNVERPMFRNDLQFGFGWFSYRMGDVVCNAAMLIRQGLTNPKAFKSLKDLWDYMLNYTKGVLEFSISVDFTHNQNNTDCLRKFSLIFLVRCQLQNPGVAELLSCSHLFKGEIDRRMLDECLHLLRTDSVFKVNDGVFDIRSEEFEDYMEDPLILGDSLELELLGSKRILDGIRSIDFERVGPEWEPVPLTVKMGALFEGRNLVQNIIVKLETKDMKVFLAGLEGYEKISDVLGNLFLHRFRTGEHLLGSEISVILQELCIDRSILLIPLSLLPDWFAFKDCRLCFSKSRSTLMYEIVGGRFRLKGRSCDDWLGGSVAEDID

Compound	effect on LCMV MG activity (GFP expression) [1]	CC50 [2] [µM]	further results
O=c1[nH]c2ccccc2n1C1CCN(CCCC(c2ccc(F)cc2)c2ccc(F)cc2)CC1 [Pimozide]	dose-dependent inhibitory effect		
O=C1c2ccccc2-n2c1nc1ccccc1c2=O [Tryptanthrin]		12.2	
PF429242			effect on multiplication of live LCMV (rLCMV/GFP) [3]: inhibited
C=C(C)[C@H]1Cc2c(ccc3c2O[C@@H]2COc4cc(OC)c(OC)cc4[C@@H]2C3=O)O1 [Rotenone]			EC50 ([3]; Mammarenavirus choriomeningitidis, A549, 48 h): 0.66 µM
COc1ccc(C(O)C(C)Oc2ccc(C3OC(c4ccc(OC(C)C(O)c5ccc(OC)c(OC)c5)c(OC)c4)C(C)C3C)cc2OC)cc1OC (stereo not shown) [Manassantin A]	dose-dependent inhibitory effect	24.3	
CO/C=C(/C(=O)OC)c1ccccc1Oc1cc(Oc2ccccc2C#N)ncn1 [Azoxystrobin]			CC50 [4]: 62.7 µM
CC[C@@]1([C@H]2O[C@H]([C@H]3O[C@@](O)(CO)[C@H](C)C[C@@H]3C)C[C@H]2C)CC[C@H]([C@@]2(C)CC[C@]3(C[C@H](O)[C@@H](C)[C@@H]([C@H](C)[C@H](OC)[C@@H](C)C(=O)O)O3)O2)O1 [Monensin sodium salt]			CC50 [4]: 5.95 µM
CCCCCC[C@H]1C(=O)O[C@H](C)[C@H](NC(=O)c2cccc(NC=O)c2O)C(=O)O[C@@H](C)[C@@H]1OC(=O)CC(C)C [Antimycin A]	dose-dependent inhibitory effect		
CC(C)[C@@H]1NC(=O)[C@H](C)OC(=O)[C@@H](C(C)C)NC(=O)[C@@H](C(C)C)OC(=O)[C@H](C(C)C)NC(=O)[C@H](C)OC(=O)[C@@H](C(C)C)NC(=O)[C@@H](C(C)C)OC(=O)[C@H](C(C)C)NC(=O)[C@H](C)OC(=O)[C@@H](C(C)C)NC(=O)[C@@H](C(C)C)OC1=O [Valinomycin]		1.93	
S=C(NCc1ccc2c(c1)OCO2)N1CCN(c2ncnc3c2oc2ccccc23)CC1 [Amuvatinib]		28	
CC[C@@H](C(=O)O)[C@@H]1O[C@@H]([C@@H](C)[C@H](O)[C@H](C)C(=O)[C@H](CC)[C@H]2O[C@]3(C=C[C@@H](O)[C@]4(CC[C@@](C)([C@H]5CC[C@](O)(CC)[C@H](C)O5)O4)O3)[C@H](C)C[C@@H]2C)[C@@H](C)C[C@@H]1C [Narasin]	dose-dependent inhibitory effect	4.44	
